From ChEMBL document CHEMBL1201862, “PubChem BioAssay data set” (2004)
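Where inhibition never reached the appropriate level, the endpoint shown equals the highest concentration tested. Otherwise, values were interpolated linearly from a five-concentration, 48-hour dose response in 96-well plates. Abbreviation: GI50, concentration required for 50% inhibition of growth.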 The source made the active and inactive calls. Rule as the data show it: active = GI50 up to about 1.1 µM and inactive = higher.

Tests used:
Experiment in all cases: NCI anticancer screen, dose series, 48 h
786-0 = test system: 786-0
A549 = test system: A549
ACHN = test system: ACHN
CAKI-1 = test system: CAKI-1
CCRF-CEM = test system: CCRF-CEM
COLO 205 = test system: COLO 205
DU-145 = test system: DU-145
EKVX = test system: EKVX
HCC 2998 = test system: HCC 2998
HCT-116 = test system: HCT-116
HCT-15 = test system: HCT-15
HL-60 = test system: HL-60
HOP-62 = test system: HOP-62
HOP-92 = test system: HOP-92
HT-29 = test system: HT-29
Hs-578T = test system: Hs-578T
IGROV-1 = test system: IGROV-1
K562 = test system: K562
KM12 = test system: KM12
LOX IMVI = test system: LOX IMVI
M14 = test system: M14
MDA-MB-231 = test system: MDA-MB-231
MDA-MB-435 = test system: MDA-MB-435
MDA-N = test system: MDA-N
MOLT-4 = test system: MOLT-4
NCI-H226 = test system: NCI-H226
NCI-H23 = test system: NCI-H23
NCI-H460 = test system: NCI-H460
NCI-H522 = test system: NCI-H522
NCI/ADR-RES = test system: NCI/ADR-RES
OVCAR-3 = test system: OVCAR-3
OVCAR-4 = test system: OVCAR-4
OVCAR-5 = test system: OVCAR-5
OVCAR-8 = test system: OVCAR-8
PC-3 = test system: PC-3
RPMI-8226 = test system: RPMI-8226
RXF 393 = test system: RXF 393
SF-268 = test system: SF-268
SF-295 = test system: SF-295
SF-539 = test system: SF-539
SK-MEL-28 = test system: SK-MEL-28
SK-MEL-2 = test system: SK-MEL-2
SK-MEL-5 = test system: SK-MEL-5
SK-OV-3 = test system: SK-OV-3
SN12C = test system: SN12C
SNB-19 = test system: SNB-19
SNB-75 = test system: SNB-75
SR = test system: SR
SW-620 = test system: SW-620
T47D = test system: T47D
TK-10 = test system: TK-10
U-251 = test system: U-251
UACC-257 = test system: UACC-257
UACC-62 = test system: UACC-62
UO-31 = test system: UO-31
A498 = test system: A498
Malme-3M = test system: Malme-3M
BT-549 = test system: BT-549
MCF7 = test system: MCF7

Measured: GI50

C[C@H](CO)C1=CC(C#C[Si](C)(C)C)N(C(=O)Oc2ccccc2)c2ccccc21 (stereo partly drawn)
3.06 µM: HCT-15
inactive: 786-0 14.2 µM | A549 11.6 µM | ACHN 13.8 µM | CAKI-1 14.1 µM | CCRF-CEM 10.9 µM | COLO 205 5.6 µM | DU-145 16.9 µM | EKVX 13.3 µM | HCC 2998 10.6 µM | HCT-116 10.8 µM | HL-60 10.4 µM | HOP-62 6.05 µM | HOP-92 12.9 µM | HT-29 4.92 µM | Hs-578T 10.2 µM | IGROV-1 12.4 µM | K562 4.54 µM | KM12 4.93 µM | LOX IMVI 15.7 µM | M14 7.69 µM | MDA-MB-231 10.3 µM | MDA-MB-435 2.26 µM | MDA-N 3.58 µM | MOLT-4 9.12 µM | NCI-H226 15.7 µM | NCI-H23 4.29 µM | NCI-H460 9.25 µM | NCI-H522 3.94 µM | NCI/ADR-RES 3.18 µM | OVCAR-3 3.93 µM | OVCAR-4 7.1 µM | OVCAR-5 15 µM | OVCAR-8 17.7 µM | PC-3 10.2 µM | RPMI-8226 20 µM | RXF 393 10.2 µM | SF-268 13.3 µM | SF-295 3.86 µM | SF-539 16 µM | SK-MEL-28 16.6 µM | SK-MEL-2 13.4 µM | SK-MEL-5 12.7 µM | SK-OV-3 11.6 µM | SN12C 12 µM | SNB-19 15.8 µM | SNB-75 6.5 µM | SR 3.4 µM | SW-620 12.4 µM | T47D 15.9 µM | TK-10 17 µM | U-251 14.6 µM | UACC-257 13.6 µM | UACC-62 5.3 µM | UO-31 9.27 µM

CN(C)C1C(=O)C(C(N)=O)=C(O)C2(O)C(O)=C3C(=O)c4c(O)cccc4C(C)(O)C3CC12 (stereo not drawn)
50.5 µM: HCT-15
inactive: A498 43.8 µM | A549 60.8 µM | CAKI-1 38.7 µM | DU-145 68.4 µM | HOP-92 > 100 µM | IGROV-1 52.8 µM | KM12 73.8 µM | LOX IMVI 33.7 µM | Malme-3M 67.3 µM | NCI-H226 82.6 µM | NCI-H460 52 µM | NCI-H522 78 µM | NCI/ADR-RES 76.4 µM | OVCAR-5 > 100 µM | PC-3 > 100 µM | RXF 393 43.6 µM | SK-MEL-28 93.5 µM | SK-OV-3 76.6 µM | UACC-257 > 100 µM

CC1(C)OP(=O)(c2ccccc2)C=C1Br (stereo not drawn)
active: RPMI-8226 0.348 µM
> 100 µM: HCT-15
inactive: 786-0 > 100 µM | A498 > 100 µM | A549 > 100 µM | ACHN > 100 µM | CAKI-1 > 100 µM | COLO 205 > 100 µM | DU-145 > 100 µM | EKVX > 100 µM | HCC 2998 > 100 µM | HCT-116 > 100 µM | HL-60 21 µM | HOP-62 > 100 µM | HOP-92 > 100 µM | HT-29 > 100 µM | Hs-578T > 100 µM | IGROV-1 > 100 µM | K562 > 100 µM | KM12 > 100 µM | LOX IMVI > 100 µM | M14 > 100 µM | MDA-MB-435 > 100 µM | MDA-N > 100 µM | Malme-3M > 100 µM | NCI-H226 > 100 µM | NCI-H23 > 100 µM | NCI-H460 > 100 µM | NCI-H522 > 100 µM | NCI/ADR-RES > 100 µM | OVCAR-3 > 100 µM | OVCAR-4 > 100 µM | OVCAR-5 > 100 µM | OVCAR-8 > 100 µM | PC-3 > 100 µM | SF-268 > 100 µM | SF-295 > 100 µM | SF-539 > 100 µM | SK-MEL-28 > 100 µM | SK-MEL-2 > 100 µM | SK-MEL-5 > 100 µM | SK-OV-3 > 100 µM | SN12C > 100 µM | SNB-19 > 100 µM | SNB-75 > 100 µM | SR > 100 µM | SW-620 > 100 µM | T47D > 100 µM | TK-10 > 100 µM | U-251 > 100 µM | UACC-257 > 100 µM | UACC-62 > 100 µM

C[Si](C)(OCCS(=O)(=O)O)OC(=C1S(=O)(=O)OCCOS1(=O)=O)c1cccc2ccccc12
> 100 µM: HCT-15
inactive: 786-0 > 100 µM | A498 98.4 µM | A549 > 100 µM | ACHN > 100 µM | BT-549 > 100 µM | CAKI-1 > 100 µM | CCRF-CEM > 100 µM | COLO 205 > 100 µM | DU-145 > 100 µM | EKVX > 100 µM | HCC 2998 90.6 µM | HCT-116 > 100 µM | HL-60 11.6 µM | HOP-62 > 100 µM | HOP-92 > 100 µM | HT-29 > 100 µM | IGROV-1 72.9 µM | K562 84.5 µM | KM12 > 100 µM | LOX IMVI > 100 µM | M14 > 100 µM | MCF7 67.6 µM | MDA-MB-231 > 100 µM | MDA-MB-435 > 100 µM | MDA-N > 100 µM | MOLT-4 > 100 µM | Malme-3M > 100 µM | NCI-H226 > 100 µM | NCI-H23 > 100 µM | NCI-H460 > 100 µM | NCI/ADR-RES > 100 µM | OVCAR-3 36.5 µM | OVCAR-4 > 100 µM | OVCAR-5 > 100 µM | OVCAR-8 > 100 µM | PC-3 > 100 µM | RPMI-8226 > 100 µM | RXF 393 37.2 µM | SF-268 64 µM | SF-295 > 100 µM | SF-539 > 100 µM | SK-MEL-28 > 100 µM | SK-MEL-2 > 100 µM | SK-MEL-5 > 100 µM | SN12C > 100 µM | SNB-19 > 100 µM | SNB-75 > 100 µM | SR > 100 µM | SW-620 > 100 µM | TK-10 > 100 µM | U-251 > 100 µM | UACC-257 > 100 µM | UO-31 > 100 µM

Cc1cn2c(/C=N/NC(=N)N)c(-c3ccc([N+](=O)[O-])cc3)nc2s1
inactive: A498 1.52 µM | A549 1.66 µM | ACHN 1.49 µM | CAKI-1 2.61 µM | DU-145 2.49 µM | HL-60 1.53 µM | HOP-62 1.29 µM | HT-29 1.32 µM | M14 1.17 µM | MDA-MB-435 1.57 µM | Malme-3M 1.39 µM | NCI-H226 1.87 µM | NCI-H23 1.59 µM | NCI-H460 1.76 µM | NCI/ADR-RES 4.04 µM | OVCAR-3 1.65 µM | PC-3 1.4 µM | RPMI-8226 1.42 µM | SF-268 1.64 µM | SF-295 1.46 µM | SF-539 1.68 µM | SK-MEL-28 1.57 µM | SK-MEL-2 1.36 µM | SK-MEL-5 1.36 µM | SK-OV-3 1.76 µM | SN12C 1.46 µM | TK-10 1.57 µM | UACC-257 1.18 µM | UACC-62 1.72 µM | UO-31 1.95 µM
active: 786-0 0.256 µM | CCRF-CEM 0.194 µM | COLO 205 0.685 µM | EKVX 0.338 µM | HCT-116 0.227 µM | HOP-92 0.641 µM | Hs-578T 0.935 µM | KM12 0.401 µM | LOX IMVI 0.352 µM | MCF7 0.252 µM | MDA-MB-231 0.385 µM | MDA-N 0.425 µM | OVCAR-4 0.169 µM | OVCAR-5 0.785 µM | OVCAR-8 0.149 µM | RXF 393 0.914 µM | SNB-19 0.357 µM | SNB-75 0.509 µM | SW-620 0.175 µM | T47D 0.566 µM | U-251 0.995 µM
1.46 µM: HCT-15
